Experiments:
Type in all cases: physicochemical
[1] = Effect of pH and polysorbate 80 on gacyclidine stability in Ringer's solution at 55° C.
Procedure: These samples were then incubated at 55° C. for 24 hours. […] The pH of each sample was determined at 55° C. by use of a pH meter standardized at 55° C. The pH meter, electrode and standards were the same as described in Example 3.

[2] = Elution of gacyclidine from a suspension of the free base form
Procedure: The pH of these solutions was monitored by use of a pH meter, as described in Example 3. […] The average temperature of these solutions was 23° C. and varied between 21 and 25° C.

[3] = Gacyclidine remaining in solution as a function of pH and excipients, 37° C., polypropylene vials
Procedure: This same procedure was conducted at 37° C., and the samples were maintained in polypropylene vials (VWR # 20170-710, 2 mL vial).

[4] = Maintenance of gacyclidine in solution (HPLC solution concentration over time); conditions: 20° C.
Procedure: Gacyclidine was detected using a Surveyor HPLC system (Thermo Electron). A Grace Vydac C8 MASS SPEC column (cat #208MS5210; S/N NE981208-3-7) purchased from The Nest Group (Southboro, Mass.) was employed for these analyses. The chromatographic column was maintained at 30° C. Samples were prepared in 12 mm×32 mm autosampler vials (Thermo Electron, A4954-010) and maintained at 20° C. in the autosampler.
For maximum accuracy, a ‘full-loop’ injection protocol was employed, in which 80.7 μL was withdrawn from the vial to over-fill a 20 μL injection loop. The entire sample contained in the 20 μL injection loop was applied to the C8 chromatography column. The sample was then eluted at a flow rate of 300 μL/min with a step gradient composed of water containing 0.1% (volume/volume) trifluoroacetic acid (buffer A) and acetonitrile containing 0.1% (volume/volume) trifluoroacetic acid (buffer B). The step gradient consisted of elution with 100% buffer A from 0 to 5 minutes; 80% buffer A-20% buffer B from 5 to 15 minutes; 100% buffer B from 15 to 20 minutes and 100% buffer A from 20 to 25 minutes.
The column eluant was monitored at 234 nm by use of a Thermo Electron PDA UV detector. […] The presence of gacyclidine was confirmed by connecting the column eluant, after passage through the UV detector, to an AQA mass spectrometer (Thermo Electron).
An aliquot (10 μL) of these solutions was then added to 10.0 mL of either Ringer's Lactate (pH 6.6), Ringer's Lactate containing 100 μM NaOH (pH 7.5), or 0.1 N HCl (pH 1.0) to give a final drug concentration of 100 μM. Aliquots of these drug solutions were transferred to autosampler vials and maintained at 20° C. until being analyzed by HPLC.

[5] = Chemical stability of gacyclidine acid and base forms (decomposition to piperidine); conditions: for decomposition rate: 54° C.; for time required for 10% loss of gacyclidine due to decomposition / rate of decomposition: acid form
Procedure: To monitor piperidine formation a Zorbax SB-CN column (25×0.46 cm, 5 μm; PN 880975, SN USS F01 3866) purchased from Agilent Technologies was maintained at 30° C. and eluted with a mixture composed of 50% Buffer A and 50% Buffer B at 150 μL/minute for 60 minutes. Buffer A was composed of water containing 0.1% trifluoroacetic acid and Buffer B was composed of acetonitrile containing 0.1% trifluoroacetic acid. The effluent from this column was interfaced with an AQA single quadrupole mass spectrometer (Thermo Electron) and a Surveyor PDA detector (UV monitor, Thermo Electron). The column effluent was monitored at 232 nm and scans were collected between 200 to 300 nm by use of the PDA detector. […] Piperidine was detected by the mass spectrometer at 16.0 minutes after injection onto the Zorbax SB-CN column (at m/z=86 only). Piperidine could not be detected by use of the PDA (UV monitor).
Both sets of samples were then incubated for various lengths of time at either 54 or 56° C.
At 5° C., the rate of decomposition was very slow and was difficult to measure, except by determining piperidine formation. The rate of decomposition at 5° C. was approximately 0.0001 day^−1, as determined by piperidine formation, or 0.000055 day^−1 as determined by extrapolation from the rates at higher temperature according to the Arrhenius relationship.

[6] = Ringer's Lactate 133 μM NaHCO3, 1.10 days
[7] = Ringer's Lactate 133 μM NaHCO3, 1.54 days
[8] = Ringer's Lactate 133 μM NaHCO3, 5.79 days
[9] = Ringer's Lactate without pH adjustment, 1.10 days
[10] = Ringer's Lactate without pH adjustment, 1.54 days
[11] = Ringer's Lactate without pH adjustment, 5.79 days
[12] = 0.1% SOLUTOL HS15, 37° C., polypropylene vials
[13] = 0.1% TWEEN 80, 37° C., polypropylene vials

CC1CCCCC1(c1cccs1)N1CCCCC1.Cl (stereo not drawn) [gacyclidine, 1-(2-methyl-1-thiophen-2-yl-cyclohexyl)-piperidine hydrochloride]
piperidine formed from 100 μM gacyclidine ([1]; 0.3% polysorbate 80, Ringer's solution, 55° C., 24 hours, pH 6.7): 4.5 µM | piperidine formed from 100 μM gacyclidine ([1]; 0.3% polysorbate 80, Ringer's solution, 55° C., 24 hours, pH 8.2): 0.92 µM | loss of gacyclidine due to precipitation ([1]; 0.3% polysorbate 80, Ringer's solution, 55° C., 24 hours, various pH): no loss of gacyclidine due to precipitation | decomposition rate as % of the acid form rate at 55° C. ([1]; 0.3% polysorbate 80, pH 6.7, 55° C.): 6.4% | decomposition rate as % of the acid form rate at 55° C. ([1]; 0.3% polysorbate 80, pH 8.2, 55° C.): 1.3% | gacyclidine ([2]; 2.8 mg free base in 20.0 mL Ringer's Lactate 133 μM NaHCO3, 23° C., 0.625 days): 20.7 µM | gacyclidine ([2]; 2.8 mg free base in 20.0 mL Ringer's Lactate without pH adjustment, 23° C., 0.625 days): 56.4 µM | pH of free base suspension ([2]; Ringer's Lactate 133 μM NaHCO3, 0.625 days): 7.54 | gacyclidine [2, 6]: 37.1 µM | pH of free base suspension [2, 6]: 7.58 | gacyclidine [2, 7]: 46.2 ± 0.3 µM | pH of free base suspension [2, 7]: 7.51 | gacyclidine [2, 8]: 76.3 ± 0.3 µM | pH of free base suspension [2, 8]: 7.62 | gacyclidine ([2]; Ringer's Lactate 133 μM NaHCO3, 9.85 days): 77.2 ± 0.5 µM | gacyclidine ([2]; Ringer's Lactate 133 μM NaHCO3, 12.9 days): 72.9 ± 1.1 µM | gacyclidine ([2]; Ringer's Lactate 133 μM NaHCO3, 14.0 days): 75.7 ± 2.0 µM | time to reach equilibrium concentration ([2]; Ringer's Lactate containing 0.13 mM sodium bicarbonate): ≤ 10 days | equilibrium concentration as % of the total amount of gacyclidine base added ([2]; Ringer's Lactate with added sodium bicarbonate): ~14% | equilibrium concentration as % of the total amount of gacyclidine base added ([2]; Ringer's Lactate without added sodium bicarbonate): about 30% | pH of free base suspension ([2]; Ringer's Lactate without pH adjustment, 0.625 days): 7.66 | gacyclidine [2, 9]: 79.8 µM | pH of free base suspension [2, 9]: 7.44 | gacyclidine [2, 10]: 88.3 ± 2.4 µM | pH of free base suspension [2, 10]: 7.46 | gacyclidine [2, 11]: 124.4 ± 14.5 µM | pH of free base suspension [2, 11]: 7.38 | gacyclidine ([2]; Ringer's Lactate without pH adjustment, 9.85 days): 152.4 ± 0.7 µM | gacyclidine ([2]; Ringer's Lactate without pH adjustment, 12.9 days): 162.2 ± 1.4 µM | gacyclidine ([2]; Ringer's Lactate without pH adjustment, 14.0 days): 157.9 ± 3.6 µM | time to reach equilibrium concentration ([2]; Ringer's Lactate without sodium bicarbonate): ≤ 10 days | maximum concentration achieved at equilibrium ([2]; solid gacyclidine base, starting pH near physiologic pH): about 75 μM | solubility of the basic form with excipient ([3]; 0.1% CAPTISOL, 37° C., polypropylene containers): did not result in a clearly defined solubility | gacyclidine retained in solution at high pH [3, 12]: ~32 μM | gacyclidine retained in solution at high pH, % of total gacyclidine added [3, 12]: ~3.2% | gacyclidine retained in solution at high pH [3, 13]: about 20 μM | gacyclidine retained in solution at high pH, % of total gacyclidine added [3, 13]: ~2.0% | solubility kinetic at 2 days ([3]; buffered aqueous solution, aqueous buffer, pH 9.2, 37° C., polypropylene vials, presence or absence of 0.1% SOLUPHOR P): ~1 µM | gacyclidine remaining in solution, % of the total gacyclidine added ([3]; pH 9.2, 37° C., polypropylene vials, presence or absence of 0.1% SOLUPHOR P): ~0.1% | concentration of gacyclidine ([4]; DMSO stock 1:1000 (0.1% DMSO), Ringer's Lactate pH 7.5, 100 μM initial, 0-3 hours): 97.5 µM | concentration of gacyclidine ([4]; DMSO stock 1:1000, 0.1N HCl (pH 1.0), 100 μM initial, 0-3 hours): 100.3 µM | concentration of gacyclidine ([4]; DMSO stock 1:1000, 0.1N HCl (pH 1.0), 100 μM initial, 3-6 hours): 100.2 µM | concentration of gacyclidine ([4]; DMSO stock 1:1000, 0.1N HCl (pH 1.0), 100 μM initial, 16-19 hours): 100.6 µM | concentration of gacyclidine ([4]; DMSO stock 1:1000, Ringer's Lactate pH 6.6, 100 μM initial, 0-3 hours): 96.0 µM | concentration of gacyclidine ([4]; DMSO stock 1:1000, Ringer's Lactate pH 6.6, 100 μM initial, 3-6 hours): 94.9 µM | concentration of gacyclidine ([4]; DMSO stock 1:1000, Ringer's Lactate pH 6.6, 100 μM initial, 16-19 hours): 91.3 µM | concentration of gacyclidine ([4]; DMSO stock 1:1000, Ringer's Lactate pH 7.5, 100 μM initial, 3-6 hours): 90.4 µM | concentration of gacyclidine ([4]; DMSO stock 1:1000, Ringer's Lactate pH 7.5, 100 μM initial, 16-19 hours): 79.3 µM | concentration of gacyclidine ([4]; aqueous stock 1:1000, 0.1N HCl (pH 1.0), 100 μM initial, 0-3 hours): 99.4 µM | concentration of gacyclidine ([4]; aqueous stock 1:1000, 0.1N HCl (pH 1.0), 100 μM initial, 3-6 hours): 99.8 µM | concentration of gacyclidine ([4]; aqueous stock 1:1000, 0.1N HCl (pH 1.0), 100 μM initial, 16-19 hours): 100.2 µM | concentration of gacyclidine ([4]; aqueous stock 1:1000, Ringer's Lactate pH 6.6, 100 μM initial, 0-3 hours): 95.1 µM | concentration of gacyclidine ([4]; aqueous stock 1:1000, Ringer's Lactate pH 6.6, 100 μM initial, 3-6 hours): 92.6 µM | concentration of gacyclidine ([4]; aqueous stock 1:1000, Ringer's Lactate pH 6.6, 100 μM initial, 16-19 hours): 87.7 µM | concentration of gacyclidine ([4]; aqueous stock 1:1000, Ringer's Lactate pH 7.5, 100 μM initial, 0-3 hours): 88.2 µM | concentration of gacyclidine ([4]; aqueous stock 1:1000, Ringer's Lactate pH 7.5, 100 μM initial, 3-6 hours): 72.0 µM | concentration of gacyclidine ([4]; aqueous stock 1:1000, Ringer's Lactate pH 7.5, 100 μM initial, 16-19 hours): 59.7 µM | decomposition rate ([5]; 1.0 mM gacyclidine in 10 mM hydrochloric acid (acid form)): 0.52 day⁻¹ | decomposition rate ([5]; 1.0 mM gacyclidine suspended in 1.5 mM sodium hydroxide (base form)): 0.0013 day⁻¹ | time required for 10% loss of gacyclidine due to decomposition ([5]; 5° C.): 3 years | rate of decomposition ([5]; 5° C., determined by piperidine formation): approximately 0.0001 day^−1 | rate of decomposition ([5]; 5° C., extrapolation from rates at higher temperature (Arrhenius)): 0.000055 day⁻¹ | time required for 10% loss of gacyclidine due to decomposition ([5]; 23° C.): 53 days | time required for 10% loss of gacyclidine due to decomposition ([5]; 37° C.): 3.8 days | rate of decomposition ([5]; 55° C.): 0.73 day⁻¹ | time required for 10% loss of gacyclidine due to decomposition ([5]; 56° C.): 0.138 days
